In general, melting point refers to the temperature of the solid-liquid transition.

Structures are written as SMILES. Residues, ends and D or L forms follow the SMILES beside them. *: point of attachment. Cbz = O=C(OCc1ccccc1)* Bounds are passed on as bounds.

The compound `COc1cc2nc(-c3n[nH]cc3NC(=O)N3CCCCC3)[nH]c2cc1Cl` registered a melting point of more than 310 °C.

In turn, `CC(=O)Nc1n[nH]c2cc(Cl)ccc12` had a melting point of 240 °C.

`C=CCSc1nc(O)nn1CC` had a melting point of 74 to 76 °C.

The compound `COC(=O)C(C)NC(=O)C1CCCN1C(=O)CNC(=O)OCc1ccccc1` (stereo not drawn) (Cbz-Gly-Pro-Ala-OMe; configuration not given here) registered a melting point of 103 to 106 °C.

`O=C(Nc1ccc(OCCCCl)c2ccccc12)c1cc(F)cc(N2CCCCC2)c1` registered a melting point of 181 to 182 °C.

For the compound `O=C1N[C@H](C(=O)O)CSCCCCCCCC1CS` (stereo partly drawn), the melting point was in the range of 169 to 173 °C.

Compound `O=C(O)Cc1c(C(=O)c2ccc(Cl)c(Cl)c2)[nH]c2cc(Cl)ccc12` displayed a melting point of 206 to 209 °C.

Regarding `COc1cc2c(=O)c(S(C)=O)nn(C)c2cc1OC` (stereo not drawn), the melting point is 262 to 264 °C.

For `CC(C)(c1ccc(-c2nc(Nc3ccc(F)cc3)ncc2C#N)cc1)N1CCCC1`, the melting point was determined as 124 °C.

With `O=C(O)CCC(=O)c1ccc(CCNS(=O)(=O)c2ccc(Cl)cc2)cc1`, the melting point was found to be 152 °C.

Regarding `Cc1cc(Cl)nnc1NS(=O)(=O)c1cccc2c(N(C)C)cccc12`, the melting point was in the range of 182 to 186 °C.

`C(=Cc1ccccc1)C=NC1CCOc2ccccc21` (stereo not drawn) displayed a melting point of 106 to 107 °C.

The compound `CN(C)C=C(C=O)c1ccc(C(F)(F)F)cc1` returned a melting point of 97 °C.

`O=c1ccn2ncc(-c3cccs3)c2[nH]1`: the melting point lay within 231 to 232 °C.

As for `CCNC(=O)c1c(-c2ccccc2)cccc1[Si](C)(C)C`, the melting point was in the range of 159 to 160 °C.

For the compound `Cc1c(NC(=O)c2ccc(OC[C@@H]3CCCO3)cc2)ccc2c1cc(CN1CCC(C)(O)CC1)n2C`, the melting point is 210 °C.

Regarding `O=C(C=P(c1ccccc1)(c1ccccc1)c1ccccc1)CCCc1ccccc1`, the melting point lay in the range of 93 to 95 °C.

In the case of `C#CCn1c(=O)c2c(nc(C#Cc3ccc(OC)c(OC)c3)n2C)n(CC)c1=O`, the melting point is 222 °C.

`COc1ccc(F)c2c(OC)c(C=O)ccc12` came in with a melting point of 129 to 131 °C.

Compound `Cc1cc(C(=O)c2ccccc2)c(-n2c(C)nnc2CNC(=O)c2cc3ccccc3[nH]2)s1` came in with a melting point of 231 to 233 °C.

Regarding `Cc1c(C(=O)OC(C)(C)C)c(O)cc2c1C(=O)c1c(O)cccc1C2=O`, the melting point was 207 °C.

Regarding `CCN(CC)c1ccc(N=c2scc(-c3ccc(Cl)c(S(=O)(=O)N(C)C)c3)n2C)cc1`, the melting point is 184 to 185 °C.

As for `CCCN(CCCCNC(=O)N1CCc2cc(OC)c(OC)cc2C1)C1CCc2ncsc2C1` (stereo not drawn), the melting point was 106 °C.

Take `COc1cc(C(C)C)c(OC(C#N)=CNc2ccccc2)cc1I`: the melting point was found to be 170 °C.

`OCc1cccc(-c2ccc(-c3cn([C@H]4CN5CCC4CC5)nn3)cc2)c1`: the melting point was found to be 207 °C.

`CCC(CC)c1nn(-c2ccc(Cl)cn2)cc1CCCO`: the melting point was 62 to 63 °C.

For `CCOC(=O)c1cc(-c2cc(Br)cc(Br)c2)cnc1C`, the melting point is 100 to 102 °C.

As for `OCCCc1cnoc1-c1ccc(-c2ccccc2)cc1`, the melting point was in the range of 94 to 95 °C.

As to `CCOC(=O)c1cn(-c2cccs2)c2c(F)c(F)c(F)c(C)c2c1=O`, the melting point was 198 to 200 °C.

In turn, `C=CCN(C)c1nc(Cc2ccc(OC)c(OC)c2)nc2sc(C#N)c(C)c12` yielded a melting point of 98 to 100 °C.

Regarding `CCCCCCCCCCc1ccc(C(=O)COC)c(OC(=O)c2cc(OC)c(OC)cc2OC)c1`, the melting point lay within 80 to 81 °C.

In turn, `C=S1C(=NC(F)(F)F)C(=NC(F)(F)F)N(c2ccccc2)C1C(C)=O` (stereo not drawn) returned a melting point of 189 to 191 °C.

Take `CS(=O)(=O)c1ccc(-c2nc(C(F)(F)F)nc(Cl)c2-c2ccc(S(=O)(=O)Cl)cc2)cc1`: the melting point was in the range of 207 to 210 °C.

As for `CCCCC(=N)NC(=O)N(C)c1ccc(Cl)cc1`, the melting point fell in the range of 59 to 61 °C.

The compound `CCC(C)(C)Nc1c(-c2ccc(OC)cc2)c(=O)c1=O` had a melting point of 133 to 135 °C.

For the compound `CC1Nc2ccccc2C(=O)N1CCN1CCC(c2noc3cc(F)ccc23)CC1` (stereo not drawn), the melting point lay within 164 to 165 °C.

`O=C1C(=O)c2ccccc2C2=C1SCC1(CCN(CC(O)Cc3ccc(Cl)cc3)CC1)O2` (stereo not drawn) had a melting point of 195 to 196 °C.

Turning to `CON=C1CCS(=O)(=O)c2c(C)cc(C(=O)O)c(C)c21`, the melting point was 169 to 171 °C.

Regarding `Cc1cc(C)cc(Sc2c(C(C)C)c(=O)[nH]c(=O)n2CCC2CC=CC2)c1`, the melting point is 128 to 129 °C.

`O=C(O)c1cc(S)c(Cl)cc1Cl` had a melting point of 254 to 255 °C.

`COc1ccc(NCCNc2ccc([N+](=O)[O-])cc2)cc1` displayed a melting point of 150 °C.

`OCc1cnc(Oc2ccccc2)s1` showed a melting point of 50 °C.

On to `CCSc1cc(C)nc(SCC)c1NC(=O)CCCCCCSc1nc2cccc(C(F)(F)F)c2o1`, for which the melting point lay in the range of 127 to 128 °C.

`COC(=O)c1ccc(C(O)c2cc3cc(Cl)cnc3n2S(=O)(=O)c2ccc(C(C)C)cc2)cc1` (stereo not drawn) returned a melting point of 77 °C.

For the compound `COC(=O)c1c(C)cccc1[N+](=O)[O-]`, the melting point lay within 44 to 45 °C.

As for `Cc1ccn(-c2ccc(S(N)(=O)=O)cc2)c1-c1ccc(F)cc1`, the melting point fell in the range of 187 to 188 °C.

`COc1ccc(-c2cc3cc(C4=NNC(=O)CC4)ccc3[nH]2)cc1` gave a melting point of 262 to 264 °C.

`CC(=O)N1c2ccc(O)cc2Sc2cc([N+](=O)[O-])ccc21` gave a melting point of 202 to 205 °C.

`Cc1ccc(S(=O)(=O)N2CCN(S(=O)(=O)c3ccc(C)cc3)CC3CCC(CN(S(=O)(=O)c4ccc(C)cc4)CC2)O3)cc1` displayed a melting point of 175 to 178 °C.

Consider `CCC(C)N1CCc2c(C(=O)O)nc3c(C#N)cnn3c21` (stereo not drawn), for which the melting point was in the range of 191 to 192 °C.

Compound `Cc1nn(-c2ccc(F)cc2)cc1C(=O)Nc1ccc(OCC(C)(C)C)c(Br)c1` registered a melting point of 193 to 194 °C.

`Fc1ccccc1CC1CCN(C2CC=C(c3ccc4c(c3)OCO4)CC2)CC1` (stereo not drawn) had a melting point of 118 to 119 °C.

`Nc1c(Cl)cccc1C(=O)c1ccccc1F` registered a melting point of 86 to 87.5 °C.

As to `COc1ccc(-c2nn(Cc3ccc(OCc4nc(-c5ccccc5)oc4C)cc3)cc2CCC(=O)O)cc1`, the melting point lay within 137 to 138 °C.

In turn, `N#Cc1ccccc1C=CCN1CCc2nc(N)sc2CC1` gave a melting point of 140 to 144 °C.

For the compound `O=C1NC(=O)c2c3ccccc3cc3cccc1c23`, the melting point turned out to be 310 °C.

In the case of `O=C(ON1C(=O)CCC1=O)c1cccnc1`, the melting point was 129 to 131 °C.

With `N#Cc1nn(-c2c(Cl)cc(C(F)(F)F)cc2Cl)cc1C=C(F)F`, the melting point lay in the range of 75 to 77 °C.

Take `OCC=C(c1ccc(I)cc1)c1ccc(I)cc1`: the melting point lay in the range of 83 to 85 °C.

The compound `CNc1ccc(-c2c[nH]cn2)cc1` showed a melting point of 75 to 76 °C.

`COCCCn1c(CO)cc2c3c(c(-c4ccccc4Cl)cc21)C(=O)NC3=O` showed a melting point of 187 to 189 °C.

The compound `Cc1cccc(-c2[nH]c(C(C)C)nc2-c2cccc(-c3ccc(OC(F)(F)F)cc3)c2)n1` registered a melting point of 120 to 122 °C.

Regarding `CCOC(=O)[C@H](Cc1cccc(Oc2ccc3ccccc3c2)c1)NC(=O)C(F)(F)F`, the melting point was in the range of 78 to 80 °C.

Source of the values: a melting point compilation (Tetko et al.; mined from patent text by program, amines drawn as free bases though some values may be those of a salt).
